Experimental data from patent US4396613A, “23-Ester derivatives of DMT and method of using same” (Eli Lilly and Company, priority 1981, dated 1983).
Values after ≈ are worked out from the molar mass of the structure shown.

Columns and labels:
[1] = test system: Staphylococcus aureus V41; experiment: standard agar-dilution assay (MIC); type: cell-based; settings: Staphylococcus aureus V41, penicillin-resistant strain, unit assumed
Description: (§1) The MIC's in Table II were determined by standard agar-dilution assays. The MIC's in Table III were obtained using a conventional broth-dilution microtiter test.
^b Penicillinresistant strain

[2] = test system: Staphylococcus aureus X400; experiment: standard agar-dilution assay (MIC); type: cell-based; settings: Staphylococcus aureus X400, methicillin-resistant strain, unit assumed
Description: as §1
^c Methicillinresistant-strain

[3] = test system: Haemophilus influenzae Holt; experiment: standard agar-dilution assay (MIC); type: cell-based; settings: ampicillin-sensitive strain, unit assumed
Description: as §1

[4] = test system: Haemophilus influenzae R252; experiment: standard agar-dilution assay (MIC); type: cell-based; settings: Haemophilus influenzae R252, ampicillin-resistant strain, unit assumed
Description: as §1

[5] = test system: Staphylococcus aureus S13E; experiment: standard agar-dilution assay (MIC); type: cell-based; settings: unit assumed
Description: as §1

[6] = test system: Staphylococcus aureus X1.1; experiment: standard agar-dilution assay (MIC); type: cell-based; settings: unit assumed
Description: as §1

[7] = test system: Staphylococcus epidermidis EPI1; experiment: standard agar-dilution assay (MIC); type: cell-based; settings: unit assumed
Description: as §1

[8] = test system: Staphylococcus epidermidis EPI2; experiment: standard agar-dilution assay (MIC); type: cell-based; settings: unit assumed
Description: as §1

Streptococcus Group 9960 = experiment: standard agar-dilution assay (MIC); type: cell-based; settings: unit assumed
Description: as §1

[9] = test system: Streptococcus Group D X66; experiment: standard agar-dilution assay (MIC); type: cell-based; settings: unit assumed
Description: as §1

[10] = test system: Streptococcus pyogenes C203; experiment: standard agar-dilution assay (MIC); type: cell-based; settings: unit assumed
Description: as §1

[11] = test system: Streptococcus pneumoniae Park I; type: cell-based; settings: agar dilution, unit assumed
Description: as §1

Mycoplasma gallisepticum = experiment: conventional broth-dilution microtiter test (MIC); type: cell-based; settings: unit assumed
Description: as §1

Mycoplasma hyorhinis = experiment: conventional broth-dilution microtiter test (MIC); type: cell-based; settings: unit assumed
Description: as §1

Mycoplasma synoviae = experiment: conventional broth-dilution microtiter test (MIC); type: cell-based; settings: unit assumed
Description: as §1

[12] = test system: Pasteurella multocida 17E; experiment: conventional broth-dilution microtiter test (MIC); type: cell-based; settings: bovine isolate, unit assumed
Description: as §1

[13] = test system: Pasteurella multocida 60A; experiment: conventional broth-dilution microtiter test (MIC); type: cell-based; settings: avian isolate, unit assumed
Description: as §1

Staphylococcus aureus = experiment: conventional broth-dilution microtiter test (MIC); type: cell-based; settings: unit assumed
Description: as §1

Streptococcus sp. 80 = experiment: conventional broth-dilution microtiter test (MIC); type: cell-based; settings: unit assumed
Description: as §1

[14] = test system: Streptococcus pyogenes C203; experiment: experimental infection in mice (ED50); type: in vivo; settings: doses given 1 and 4 hours postinfection
Description: The 23-ester derivatives of DMT of this invention have shown in vivo antimicrobial activity against experimental bacterial infections caused by gram-positive bacteria. When two doses of test compound were admininstered to mice with experimental infections, the activity observed was measured as an ED50 value [effective dose in mg/kg to protect 50% of the test animals: see Warren Wick, et al., J. Bacteriol. 81, 233-235 (1961)].
^a mg/kg × 2; doses given 1 and 4 hours postinfection

CCC(=O)OCC1C=C(C)C=CC(=O)C(C)CC(CC=O)C(OC2OC(C)C(OC3CC(C)(O)C(O)C(C)O3)C(N(C)C)C2OC(=O)CC)C(C)C(O)CC(=O)OC1CC (stereo not shown) [Compound 3, 2',23-Di-O-Propionyl-DMT]
MIC [1]: 0.5 µg/mL (≈ 0.585 µM) | MIC [2]: 2 µg/mL (≈ 2.34 µM) | MIC [3]: 16 µg/mL (≈ 18.7 µM) | MIC [4]: 16 µg/mL (≈ 18.7 µM) | MIC [5]: 1 µg/mL (≈ 1.17 µM) | MIC [6]: 0.5 µg/mL (≈ 0.585 µM) | MIC [7]: 0.5 µg/mL (≈ 0.585 µM) | MIC [8]: 1 µg/mL (≈ 1.17 µM) | MIC (Streptococcus Group 9960): 1 µg/mL (≈ 1.17 µM) | MIC [9]: 1 µg/mL (≈ 1.17 µM) | MIC [10]: 0.5 µg/mL (≈ 0.585 µM) | MIC [11]: 0.5 µg/mL (≈ 0.585 µM) | MIC (Mycoplasma gallisepticum): 0.78 µg/mL (≈ 0.913 µM) | MIC (Mycoplasma hyorhinis): 1.56 µg/mL (≈ 1.83 µM) | MIC (Mycoplasma synoviae): 0.195 µg/mL (≈ 0.228 µM) | MIC [12]: 6.25 µg/mL (≈ 7.32 µM) | MIC [13]: 12.5 µg/mL (≈ 14.6 µM) | MIC (Staphylococcus aureus): 0.78 µg/mL (≈ 0.913 µM) | MIC (Streptococcus sp. 80): 0.78 µg/mL (≈ 0.913 µM) | ED50 ([14]; C203, oral): 117 mg/kg | ED50 ([14]; C203, sc, subcutaneous): > 20 mg/kg

CCC(=O)OCC1C=C(C)C=CC(=O)C(C)CC(CC=O)C(OC2OC(C)C(OC3CC(C)(O)C(O)C(C)O3)C(N(C)C)C2O)C(C)C(O)CC(=O)OC1CC (stereo not shown) [Compound 4, 23-O-Propionyl-DMT]
MIC [1]: 0.5 µg/mL (≈ 0.627 µM) | MIC [2]: 2 µg/mL (≈ 2.51 µM) | MIC [3]: 32 µg/mL (≈ 40.1 µM) | MIC [4]: 32 µg/mL (≈ 40.1 µM) | MIC [5]: 1 µg/mL (≈ 1.25 µM) | MIC [6]: 1 µg/mL (≈ 1.25 µM) | MIC [7]: 1 µg/mL (≈ 1.25 µM) | MIC [8]: 1 µg/mL (≈ 1.25 µM) | MIC (Streptococcus Group 9960): 1 µg/mL (≈ 1.25 µM) | MIC [9]: 1 µg/mL (≈ 1.25 µM) | MIC [10]: 0.5 µg/mL (≈ 0.627 µM) | MIC (Mycoplasma gallisepticum): 0.39 µg/mL (≈ 0.489 µM) | MIC (Mycoplasma hyorhinis): 3.12 µg/mL (≈ 3.91 µM) | MIC [12]: 6.25 µg/mL (≈ 7.83 µM) | MIC [13]: 25 µg/mL (≈ 31.3 µM) | MIC (Staphylococcus aureus): 0.78 µg/mL (≈ 0.977 µM) | MIC (Streptococcus sp. 80): 0.39 µg/mL (≈ 0.489 µM) | ED50 ([14]; C203, oral): 300 mg/kg | ED50 ([14]; C203, sc, subcutaneous): 13 mg/kg

CCC1OC(=O)CC(O)C(C)C(OC2OC(C)C(OC3CC(C)(O)C(O)C(C)O3)C(N(C)C)C2O)C(CC=O)CC(C)C(=O)C=CC(C)=CC1COC(=O)N1CCC(O)CC1 (stereo not shown) [Compound 28]
MIC [1]: 1 µg/mL (≈ 1.15 µM) | MIC [2]: 2 µg/mL (≈ 2.3 µM) | MIC [3]: 8 µg/mL (≈ 9.21 µM) | MIC [4]: 16 µg/mL (≈ 18.4 µM) | MIC [5]: 2 µg/mL (≈ 2.3 µM) | MIC [6]: 1 µg/mL (≈ 1.15 µM) | MIC [7]: 0.5 µg/mL (≈ 0.575 µM) | MIC [8]: 2 µg/mL (≈ 2.3 µM) | MIC (Streptococcus Group 9960): 1 µg/mL (≈ 1.15 µM) | MIC [9]: 1 µg/mL (≈ 1.15 µM) | MIC [10]: 0.25 µg/mL (≈ 0.288 µM) | MIC [11]: 0.125 µg/mL (≈ 0.144 µM) | MIC (Mycoplasma gallisepticum): 0.39 µg/mL (≈ 0.449 µM) | MIC (Mycoplasma hyorhinis): 0.78 µg/mL (≈ 0.898 µM) | MIC (Mycoplasma synoviae): 0.78 µg/mL (≈ 0.898 µM) | MIC [12]: 12.5 µg/mL (≈ 14.4 µM) | MIC [13]: 25 µg/mL (≈ 28.8 µM) | MIC (Staphylococcus aureus): 1.56 µg/mL (≈ 1.8 µM) | MIC (Streptococcus sp. 80): 0.39 µg/mL (≈ 0.449 µM)

CCC1OC(=O)CC(O)C(C)C(OC2OC(C)C(OC3CC(C)(O)C(O)C(C)O3)C(N(C)C)C2OC(C)=O)C(CC=O)CC(C)C(=O)C=CC(C)=CC1COC(C)=O (stereo not shown) [Compound 1, 2',23-Di-O-Acetyl-DMT]
MIC [1]: 1 µg/mL (≈ 1.21 µM) | MIC [2]: 2 µg/mL (≈ 2.42 µM) | MIC [3]: 16 µg/mL (≈ 19.4 µM) | MIC [4]: 16 µg/mL (≈ 19.4 µM) | MIC [5]: 2 µg/mL (≈ 2.42 µM) | MIC [6]: 1 µg/mL (≈ 1.21 µM) | MIC [7]: 2 µg/mL (≈ 2.42 µM) | MIC [8]: 2 µg/mL (≈ 2.42 µM) | MIC (Streptococcus Group 9960): 1 µg/mL (≈ 1.21 µM) | MIC [9]: 2 µg/mL (≈ 2.42 µM) | MIC [10]: 1 µg/mL (≈ 1.21 µM) | MIC [11]: 0.25 µg/mL (≈ 0.303 µM) | MIC (Mycoplasma gallisepticum): 0.39 µg/mL (≈ 0.472 µM) | MIC (Mycoplasma hyorhinis): 3.12 µg/mL (≈ 3.78 µM) | MIC [12]: 6.25 µg/mL (≈ 7.57 µM) | MIC [13]: 12.5 µg/mL (≈ 15.1 µM) | MIC (Staphylococcus aureus): 0.78 µg/mL (≈ 0.944 µM) | MIC (Streptococcus sp. 80): 0.78 µg/mL (≈ 0.944 µM) | ED50 ([14]; C203, oral): 212 mg/kg | ED50 ([14]; C203, sc, subcutaneous): > 20 mg/kg
